In ChEMBL document CHEMBL4339189, “Dissymmetric pyridyl-substituted 3,5-bis(arylidene)-4-piperidones as anti-hepatoma agents by inhibiting NF-κB pathway activation” (Eur J Med Chem, 2019):
The source made the active and inactive calls. No cut-off for these calls is given here.

What was measured:
HepG2 = test: Cytotoxicity against human HepG2 cells assessed as reduction in cell viability incubated for 24 hrs by MTT assay; format: functional, cell-based; conditions: HepG2, 24 h
QGY-7703 = test: Cytotoxicity against human QGY7703 cells assessed as reduction in cell viability incubated for 24 hrs by MTT assay; format: functional, cell-based; conditions: QGY-7703, 24 h
SMMC-7721 = test: Cytotoxicity against human SMMC7721 cells assessed as reduction in cell viability incubated for 24 hrs by MTT assay; format: functional, cell-based; conditions: SMMC-7721, 24 h
[1] = Cytotoxicity against human HHL5 cells assessed as reduction in cell viability incubated for 24 hrs by MTT assay; format: cell-based; conditions: HHL-5, 24 h
L02 = test: Cytotoxicity against human LO2 cells assessed as reduction in cell viability incubated for 24 hrs by MTT assay; format: cell-based; conditions: L02, 24 h
RAW264.7 [2] = test: Cytotoxicity against mouse RAW264.7 cells assessed as reduction in cell viability at 6.0 uM incubated for 24 hrs by MTT assay; format: cell-based; conditions: raw264.7, 24 h
RAW264.7 [3] = test: Antiinflammatory activity in mouse RAW264.7 cells assessed as inhibition of LPS-stimulated TNF-alpha production at 6.0 uM preincubated for 2 hrs followed by LPS stimulaton measured after 22 hrs by ELISA relative to control; format: functional
RAW264.7 [4] = test: Antiinflammatory activity in mouse RAW264.7 cells assessed as inhibition of LPS-stimulated IL-6 production 6.0 uM preincubated for 2 hrs followed by LPS stimulaton measured after 22 hrs by ELISA relative to control; format: functional

Structure (SMILES)	IC50 (HepG2) [µM]	IC50 (QGY-7703) [µM]	IC50 (SMMC-7721) [µM]	IC50 [1] [µM]	IC50 (L02) [µM]	Activity (RAW264.7 [2])	inhibition (RAW264.7 [3])	inhibition (RAW264.7 [4])	inhibition at 6 µM (RAW264.7 [3]) [%]	inhibition (INH) (RAW264.7 [4]) [%]
CN1C/C(=C\c2cccnc2)C(=O)/C(=C/c2ccccc2F)C1	4.81	4.47	5.42	13.5	15.9	Non-Toxic	Active	Active		
O=C1/C(=C/c2ccncc2)CN(S(=O)(=O)c2ccc(Cl)cc2)C/C1=C\c1ccccc1F	5.3	12.5	9.6	11.5	15	Non-Toxic	Active	Active		
O=C1/C(=C/c2cccnc2)CNC/C1=C\c1ccccc1C(F)(F)F	5.02	3.8	5.1	10.4	11.3	Non-Toxic	Active	Active		
O=C1/C(=C/c2ccncc2)CN(S(=O)(=O)c2ccc(F)cc2)C/C1=C\c1ccccc1F	20.3	9.1	> 20	15.4	15.6	Non-Toxic	inactive	inactive		
O=C1/C(=C/c2cccnc2)CN(S(=O)(=O)c2ccc(F)cc2)C/C1=C\c1ccccc1C(F)(F)F	2.34	6.03	6.39	12.1	16.1	Non-Toxic	Active	Active		
O=C1/C(=C/c2ccncc2)CN(S(=O)(=O)c2ccc([N+](=O)[O-])cc2)C/C1=C\c1ccccc1F	11.3	8.8	15.8	16	18.4	Non-Toxic	inactive	inactive		
CN1C/C(=C\c2ccncc2)C(=O)/C(=C/c2cc([N+](=O)[O-])ccc2F)C1	5.2	5.7	14.7	15.2	17.6	Non-Toxic			< 30	<30
O=C1/C(=C/c2ccncc2)CN(S(=O)(=O)c2ccc(C(F)(F)F)cc2)C/C1=C\c1ccccc1F	4.03	9.5	11.1	13.4	18.6	Non-Toxic	Active	Active		
O=C1/C(=C/c2cccnc2)CN(S(=O)(=O)c2ccc(Cl)cc2)C/C1=C\c1ccccc1C(F)(F)F	3.62	3.44	4.88	11.1	11.9	Non-Toxic	Active	Active		
O=C1/C(=C/c2ccncc2)CNC/C1=C\c1ccccc1C(F)(F)F	6.13	4.9	4.5	9.87	13.4	Non-Toxic	Active	Active		
O=C1/C(=C/c2cccnc2)CN(S(=O)(=O)c2ccc(Cl)cc2)C/C1=C\c1ccccc1F	12.4	12.1	16.1	> 20	> 20	Non-Toxic	inactive	inactive		
CN1C/C(=C\c2ccncc2)C(=O)/C(=C/c2ccc(C(F)(F)F)cc2)C1	8.2	10.4	17.7	12.2	17.4	Non-Toxic	Active	Active		
CN1C/C(=C\c2ccc(C#N)cc2)C(=O)/C(=C/c2cccnc2)C1	12.7	> 20	13.6	> 20	> 20	Non-Toxic	Active	Active		
O=C1/C(=C/c2cccnc2)CN(S(=O)(=O)c2ccc(Br)cc2)C/C1=C\c1ccccc1C(F)(F)F	2.73	5.51	5.76	15.5	13.3	Non-Toxic	Active	Active		
O=C1/C(=C/c2cccnc2)CN(S(=O)(=O)c2ccc([N+](=O)[O-])cc2)C/C1=C\c1ccccc1C(F)(F)F	9.37	7.66	15.9	14.1	15.7	Non-Toxic	Active	Active		
N#Cc1ccc(S(=O)(=O)N2C/C(=C\c3cccnc3)C(=O)/C(=C/c3ccccc3C(F)(F)F)C2)cc1	5.06	6.15	9.65	11.2	13.2	Non-Toxic	Active	Active		
COc1cc(/C=C2\CN(C)C/C(=C\c3cccnc3)C2=O)cc(OC)c1OC	9.52	4.3	20.4	11.3	14.4	Non-Toxic	Active	Active		
CN1C/C(=C\c2ccncc2)C(=O)/C(=C/c2ccc(C#N)cc2)C1	13.9	7.4	18.5	11.5	14	Non-Toxic	Active	Active		
O=C1/C(=C/c2ccncc2)CNC/C1=C\c1ccccc1F	8.2	14.2	18.4	13.9	14.7	Non-Toxic	inactive	inactive		
O=C1/C(=C/c2cccnc2)CN(S(=O)(=O)c2ccc(Br)cc2)C/C1=C\c1ccccc1F	8.7	12.8	9.1	14.2	14.6	Non-Toxic	inactive	inactive		
CN1C/C(=C\c2cccnc2)C(=O)/C(=C/c2ccccc2C(F)(F)F)C1	2.55	2.91	3.9	11.1	14.1	Non-Toxic			< 30	<30
CN1C/C(=C\c2ccc(C(F)(F)F)cc2)C(=O)/C(=C/c2cccnc2)C1	4.79	1.66	4.83	14.2	15.6	Non-Toxic			< 30	<30
CN1C/C(=C\c2ccncc2)C(=O)/C(=C/c2ccccc2F)C1	4.6	4.9	7	18.5	14.9	Non-Toxic	Active	Active		
O=C1/C(=C/c2ccncc2)CN(S(=O)(=O)c2ccc(Br)cc2)C/C1=C\c1ccccc1F	9.3	11.5	12.6	> 20	19.4	Non-Toxic	inactive	inactive		
